Assay results from US9809578B2, “Pyrazolyl urea, thiourea, guanidine and cyanoguanidine compounds as trkA kinase inhibitors” (Array BioPharma Inc., priority 2012, dated 2017).

Legend:
Assay type in all cases: biochemical
Conditions in all cases: 10 μM, ATP near Km
[1] = target: T1, BLK_m (Mus musculus, UniProt P16277); assay: KinaseProfiler BLK_m
T1 construct: purchased Millipore (KinaseProfiler service)
Description: (§1) The compound was run in duplicate at a concentration of ATP near the Km for each individual kinase according to Millipore's specifications.

[2] = target: T2, CK1gamma1 (Homo sapiens, UniProt Q9HCP0); assay: KinaseProfiler CK1gamma1
T2 construct: purchased Millipore, Inc. (KinaseProfiler service)
Description: as §1

[3] = target: T3, CK1gamma3 (Homo sapiens, UniProt Q9Y6M4); assay: KinaseProfiler CK1gamma3
T3 construct: purchased Millipore, Inc. (KinaseProfiler service)
Description: as §1

[4] = target: T4, CLK3 (Homo sapiens, UniProt P49761); assay: KinaseProfiler CLK3
T4 construct: purchased Millipore, Inc. (KinaseProfiler service)
Description: as §1

[5] = target: T5, Fer (Homo sapiens, UniProt P16591); assay: KinaseProfiler Fer
T5 construct: purchased Millipore, Inc. (KinaseProfiler service)
Description: as §1

[6] = target: T6, FGFR4 (Homo sapiens, UniProt P22455); assay: KinaseProfiler FGFR4
T6 construct: purchased Millipore, Inc. (KinaseProfiler service)
Description: as §1

[7] = target: T7, Haspin (Homo sapiens, UniProt Q8TF76); assay: KinaseProfiler Haspin
T7 construct: purchased Millipore, Inc. (KinaseProfiler service)
Description: as §1

[8] = target: T8, Hck (Homo sapiens, UniProt P08631); assay: KinaseProfiler Hck
T8 construct: purchased Millipore, Inc. (KinaseProfiler service)
Description: as §1

[9] = target: T9, IR (Homo sapiens, UniProt P06213); assay: KinaseProfiler IR
T9 construct: purchased Millipore, Inc. (KinaseProfiler service)
Description: as §1

[10] = target: T10, IR Activated (Homo sapiens, UniProt P06213); assay: KinaseProfiler IR Activated
T10 construct: purchased Millipore, Inc. (KinaseProfiler service)
Description: as §1

[11] = target: T11, JNK2alpha2 (Homo sapiens, UniProt P45984); assay: KinaseProfiler JNK2alpha2
T11 construct: purchased Millipore, Inc. (KinaseProfiler service)
Description: as §1

[12] = target: T12, Lck (Homo sapiens, UniProt P06239); assay: KinaseProfiler Lck
T12 construct: purchased Millipore, Inc. (KinaseProfiler service)
Description: as §1

[13] = target: T13, Lyn (Homo sapiens, UniProt P07948); assay: KinaseProfiler Lyn
T13 construct: purchased Millipore, Inc. (KinaseProfiler service)
Description: as §1

[14] = target: T14, MKK6 (Homo sapiens, UniProt P52564); assay: KinaseProfiler MKK6
T14 construct: purchased Millipore, Inc. (KinaseProfiler service)
Description: as §1

[15] = target: T15, MST3 (Homo sapiens, UniProt Q9Y6E0); assay: KinaseProfiler MST3
T15 construct: purchased Millipore, Inc. (KinaseProfiler service)
Description: as §1

[16] = target: T16, NLK (Homo sapiens, UniProt Q9UBE8); assay: KinaseProfiler NLK
T16 construct: purchased Millipore, Inc. (KinaseProfiler service)
Description: as §1

[17] = target: T17, PRK2 (Homo sapiens, UniProt Q16513); assay: KinaseProfiler PRK2
T17 construct: purchased Millipore, Inc. (KinaseProfiler service)
Description: as §1

[18] = target: T18, Rsk2 (Homo sapiens, UniProt P51812); assay: KinaseProfiler Rsk2
T18 construct: purchased Millipore, Inc. (KinaseProfiler service)
Description: as §1

T3 sequence (Q9Y6M4 whole entry): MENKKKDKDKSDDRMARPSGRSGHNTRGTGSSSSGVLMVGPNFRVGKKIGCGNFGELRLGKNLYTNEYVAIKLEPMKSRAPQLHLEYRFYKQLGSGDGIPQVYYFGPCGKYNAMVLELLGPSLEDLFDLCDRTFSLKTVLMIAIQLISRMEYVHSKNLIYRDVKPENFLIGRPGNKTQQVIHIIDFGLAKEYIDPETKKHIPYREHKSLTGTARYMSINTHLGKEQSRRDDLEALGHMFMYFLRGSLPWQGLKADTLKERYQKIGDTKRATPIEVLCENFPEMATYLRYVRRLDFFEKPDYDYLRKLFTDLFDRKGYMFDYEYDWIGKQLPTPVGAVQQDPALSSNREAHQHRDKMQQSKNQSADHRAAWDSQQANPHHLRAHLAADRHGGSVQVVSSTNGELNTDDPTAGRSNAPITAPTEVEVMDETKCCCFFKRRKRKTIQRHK
T8 sequence (P08631 whole entry): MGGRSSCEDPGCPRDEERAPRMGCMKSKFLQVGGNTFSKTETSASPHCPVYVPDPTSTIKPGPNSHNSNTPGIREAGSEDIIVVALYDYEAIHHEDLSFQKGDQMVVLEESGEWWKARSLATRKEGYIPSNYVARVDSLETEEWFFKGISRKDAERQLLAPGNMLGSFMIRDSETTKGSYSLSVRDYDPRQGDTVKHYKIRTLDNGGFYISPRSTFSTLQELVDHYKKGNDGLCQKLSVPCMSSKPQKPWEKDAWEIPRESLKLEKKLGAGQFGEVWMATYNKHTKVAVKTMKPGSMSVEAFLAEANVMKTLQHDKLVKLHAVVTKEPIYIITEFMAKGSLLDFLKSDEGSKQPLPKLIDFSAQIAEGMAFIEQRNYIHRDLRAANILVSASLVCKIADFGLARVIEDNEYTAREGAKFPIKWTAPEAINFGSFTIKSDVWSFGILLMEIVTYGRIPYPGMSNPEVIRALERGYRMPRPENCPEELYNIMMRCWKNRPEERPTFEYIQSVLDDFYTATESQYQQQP
T6 sequence (P22455 22-802): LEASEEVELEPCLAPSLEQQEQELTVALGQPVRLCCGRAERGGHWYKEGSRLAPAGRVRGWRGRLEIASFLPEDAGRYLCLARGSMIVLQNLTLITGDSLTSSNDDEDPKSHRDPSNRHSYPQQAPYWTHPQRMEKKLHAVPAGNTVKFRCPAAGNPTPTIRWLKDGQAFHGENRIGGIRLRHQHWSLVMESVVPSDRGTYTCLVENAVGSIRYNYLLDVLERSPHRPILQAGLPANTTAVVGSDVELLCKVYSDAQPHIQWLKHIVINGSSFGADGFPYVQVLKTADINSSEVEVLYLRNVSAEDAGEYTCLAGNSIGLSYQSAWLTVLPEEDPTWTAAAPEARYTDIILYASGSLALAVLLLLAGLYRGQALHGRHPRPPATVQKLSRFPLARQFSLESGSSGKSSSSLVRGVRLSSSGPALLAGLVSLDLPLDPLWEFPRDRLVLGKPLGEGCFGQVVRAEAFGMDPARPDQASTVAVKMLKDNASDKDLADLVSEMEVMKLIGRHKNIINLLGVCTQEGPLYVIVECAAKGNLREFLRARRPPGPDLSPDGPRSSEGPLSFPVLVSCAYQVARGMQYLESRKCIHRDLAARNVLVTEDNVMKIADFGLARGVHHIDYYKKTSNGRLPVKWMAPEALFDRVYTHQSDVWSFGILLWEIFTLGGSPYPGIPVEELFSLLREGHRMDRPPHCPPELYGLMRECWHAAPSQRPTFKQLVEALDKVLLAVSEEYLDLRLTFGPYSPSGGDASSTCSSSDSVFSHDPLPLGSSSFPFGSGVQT
T18 sequence (P51812 whole entry): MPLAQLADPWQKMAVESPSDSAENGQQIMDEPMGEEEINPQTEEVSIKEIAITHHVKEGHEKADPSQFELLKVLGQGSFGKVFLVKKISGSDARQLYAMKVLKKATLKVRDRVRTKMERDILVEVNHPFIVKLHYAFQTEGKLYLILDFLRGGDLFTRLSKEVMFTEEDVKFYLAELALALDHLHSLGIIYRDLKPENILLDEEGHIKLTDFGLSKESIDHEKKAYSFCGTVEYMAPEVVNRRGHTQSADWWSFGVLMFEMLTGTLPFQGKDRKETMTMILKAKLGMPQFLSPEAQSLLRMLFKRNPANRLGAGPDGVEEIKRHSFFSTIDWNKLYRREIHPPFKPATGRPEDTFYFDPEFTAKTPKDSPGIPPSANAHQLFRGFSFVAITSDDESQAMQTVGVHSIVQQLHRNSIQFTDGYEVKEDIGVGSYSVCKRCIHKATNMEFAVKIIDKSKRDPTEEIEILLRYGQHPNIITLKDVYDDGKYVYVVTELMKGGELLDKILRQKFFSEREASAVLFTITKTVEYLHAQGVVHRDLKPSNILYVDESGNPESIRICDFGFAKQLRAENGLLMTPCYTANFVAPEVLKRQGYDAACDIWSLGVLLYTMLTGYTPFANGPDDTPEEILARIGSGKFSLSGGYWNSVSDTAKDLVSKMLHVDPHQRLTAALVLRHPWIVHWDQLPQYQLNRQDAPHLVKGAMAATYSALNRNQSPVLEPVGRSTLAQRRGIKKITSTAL
T4 sequence (P49761 whole entry): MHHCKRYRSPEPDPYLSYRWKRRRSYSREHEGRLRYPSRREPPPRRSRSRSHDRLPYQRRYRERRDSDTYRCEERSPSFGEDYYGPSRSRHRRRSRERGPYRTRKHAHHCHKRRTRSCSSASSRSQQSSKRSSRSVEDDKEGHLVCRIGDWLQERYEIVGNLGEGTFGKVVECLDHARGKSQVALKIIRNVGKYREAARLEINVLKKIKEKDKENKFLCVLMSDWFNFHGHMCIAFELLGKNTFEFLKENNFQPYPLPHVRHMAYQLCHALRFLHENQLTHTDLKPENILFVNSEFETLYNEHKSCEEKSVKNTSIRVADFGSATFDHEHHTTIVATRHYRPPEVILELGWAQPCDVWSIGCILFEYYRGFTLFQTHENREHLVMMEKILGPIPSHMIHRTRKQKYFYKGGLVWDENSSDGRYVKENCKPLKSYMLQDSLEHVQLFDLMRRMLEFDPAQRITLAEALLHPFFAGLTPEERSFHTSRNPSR
T12 sequence (P06239 whole entry): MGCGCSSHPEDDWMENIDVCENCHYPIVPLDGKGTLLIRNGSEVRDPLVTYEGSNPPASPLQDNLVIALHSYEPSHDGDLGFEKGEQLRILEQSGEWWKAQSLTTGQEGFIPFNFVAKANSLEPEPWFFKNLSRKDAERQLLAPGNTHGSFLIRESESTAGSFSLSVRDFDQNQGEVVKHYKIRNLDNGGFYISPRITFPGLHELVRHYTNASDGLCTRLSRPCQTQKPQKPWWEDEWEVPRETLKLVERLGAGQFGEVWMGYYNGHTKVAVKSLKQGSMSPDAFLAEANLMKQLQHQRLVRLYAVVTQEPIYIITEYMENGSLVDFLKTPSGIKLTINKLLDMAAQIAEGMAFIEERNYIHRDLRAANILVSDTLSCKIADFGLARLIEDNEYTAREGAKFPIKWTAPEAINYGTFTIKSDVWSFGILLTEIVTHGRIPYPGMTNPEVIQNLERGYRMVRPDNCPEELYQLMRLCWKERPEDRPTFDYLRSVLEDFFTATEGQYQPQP
T10 sequence (P06213 1005-1310 limits assumed): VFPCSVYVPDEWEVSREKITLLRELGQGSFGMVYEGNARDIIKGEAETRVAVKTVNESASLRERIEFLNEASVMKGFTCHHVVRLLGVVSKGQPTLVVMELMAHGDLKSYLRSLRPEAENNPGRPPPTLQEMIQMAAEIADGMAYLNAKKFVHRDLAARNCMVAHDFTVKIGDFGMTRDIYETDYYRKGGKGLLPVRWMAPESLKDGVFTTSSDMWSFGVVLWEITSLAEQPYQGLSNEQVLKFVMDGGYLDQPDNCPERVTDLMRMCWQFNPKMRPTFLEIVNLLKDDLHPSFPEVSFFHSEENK
T7 sequence (Q8TF76 whole entry): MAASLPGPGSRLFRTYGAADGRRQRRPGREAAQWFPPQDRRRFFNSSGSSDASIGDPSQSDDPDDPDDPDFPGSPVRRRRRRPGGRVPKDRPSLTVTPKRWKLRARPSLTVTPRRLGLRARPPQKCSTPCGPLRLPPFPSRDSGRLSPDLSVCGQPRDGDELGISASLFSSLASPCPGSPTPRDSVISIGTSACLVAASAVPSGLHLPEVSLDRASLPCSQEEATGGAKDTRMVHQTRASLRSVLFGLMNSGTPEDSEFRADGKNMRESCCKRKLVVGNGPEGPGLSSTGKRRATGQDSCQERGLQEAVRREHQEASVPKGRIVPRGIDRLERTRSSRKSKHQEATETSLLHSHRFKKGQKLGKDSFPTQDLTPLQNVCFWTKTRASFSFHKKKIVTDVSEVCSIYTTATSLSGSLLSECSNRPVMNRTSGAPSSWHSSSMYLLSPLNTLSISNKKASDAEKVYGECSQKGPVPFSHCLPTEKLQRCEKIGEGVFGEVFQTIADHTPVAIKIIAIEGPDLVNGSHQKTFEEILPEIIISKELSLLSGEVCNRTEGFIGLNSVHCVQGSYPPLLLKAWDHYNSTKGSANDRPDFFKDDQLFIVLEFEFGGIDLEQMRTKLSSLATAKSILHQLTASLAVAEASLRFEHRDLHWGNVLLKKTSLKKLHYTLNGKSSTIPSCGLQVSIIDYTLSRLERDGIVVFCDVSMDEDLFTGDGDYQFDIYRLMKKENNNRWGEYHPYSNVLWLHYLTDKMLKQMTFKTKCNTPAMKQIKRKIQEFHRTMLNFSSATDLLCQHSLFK
T14 sequence (P52564 whole entry): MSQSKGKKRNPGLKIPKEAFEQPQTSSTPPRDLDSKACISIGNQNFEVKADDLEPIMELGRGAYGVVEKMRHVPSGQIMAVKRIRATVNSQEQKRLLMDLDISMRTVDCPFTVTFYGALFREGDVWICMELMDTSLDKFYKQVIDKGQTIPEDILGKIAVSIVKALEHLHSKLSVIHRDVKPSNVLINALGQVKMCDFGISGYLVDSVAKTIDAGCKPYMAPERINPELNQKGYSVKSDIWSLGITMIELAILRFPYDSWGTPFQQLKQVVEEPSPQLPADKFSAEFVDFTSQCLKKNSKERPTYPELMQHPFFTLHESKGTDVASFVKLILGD

Structure (SMILES): Cc1c(-c2cnn(C)c2)nn(-c2ccccc2)c1NC(=O)Nc1cc(C(F)(F)F)nn1-c1ccccc1 [Example 3, 1-(1′,4-dimethyl-1-phenyl-1H,1′H-[3,4′-bipyrazol]-5-yl)-3-(1-phenyl-3-(trifluoromethyl)-1H-pyrazol-5-yl)urea]
- Avg POC [1]: 108.5 POC
- Avg POC [2]: 112 POC
- Avg POC [3]: 125 POC
- Avg POC [4]: 104 POC
- Avg POC [5]: 92.5 POC
- Avg POC [6]: 174.5 POC
- Avg POC [7]: 121 POC
- Avg POC [8]: 110.5 POC
- Avg POC [9]: 90 POC
- Avg POC [10]: 99.5 POC
- Avg POC [11]: 99.5 POC
- Avg POC [12]: 93 POC
- Avg POC [13]: 98 POC
- Avg POC [14]: 132.5 POC
- Avg POC [15]: 146.5 POC
- Avg POC [16]: 116.5 POC
- Avg POC [17]: 106.5 POC
- Avg POC [18]: 134 POC
